According to ChEMBL document CHEMBL1201862, “PubChem BioAssay data set” (2004):
Calls of active or inactive are those of the source.

Columns and labels:
Troponin, cardiac muscle = Troponin, cardiac muscle (Homo sapiens, UniProt P19429+P45379+P63316); experiment: Fluorescence-based biochemical high throughput dose response assay for activators of the calcium sensitivity of cardiac Regulated Thin Filaments (RTF). [Related pubchem assays (depositor defined):AID493008, AID493018, AID504382, AID504383]; type: protein-complex assay
[1] = target: T1, Corticotropin-releasing factor receptor 2/Corticotropin-releasing factor-binding protein (Homo sapiens, UniProt P24387+Q13324); experiment: activators of CRF receptor 2 with binding protein – uHTS hits, confirmation (AID 602473); type: functional; details: read-out: EC50_Mean
T1 sequence (Q13324 whole entry): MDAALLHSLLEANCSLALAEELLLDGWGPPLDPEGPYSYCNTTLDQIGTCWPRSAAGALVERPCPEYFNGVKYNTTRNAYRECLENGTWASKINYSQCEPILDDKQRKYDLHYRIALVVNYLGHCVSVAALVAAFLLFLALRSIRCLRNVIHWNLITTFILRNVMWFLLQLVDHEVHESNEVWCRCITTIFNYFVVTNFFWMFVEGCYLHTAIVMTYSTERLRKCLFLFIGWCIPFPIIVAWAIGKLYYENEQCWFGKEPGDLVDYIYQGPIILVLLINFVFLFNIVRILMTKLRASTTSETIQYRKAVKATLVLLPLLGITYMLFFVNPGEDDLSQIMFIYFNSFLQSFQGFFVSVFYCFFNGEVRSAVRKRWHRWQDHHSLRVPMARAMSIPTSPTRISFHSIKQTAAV
T1 sequence (P24387 whole entry): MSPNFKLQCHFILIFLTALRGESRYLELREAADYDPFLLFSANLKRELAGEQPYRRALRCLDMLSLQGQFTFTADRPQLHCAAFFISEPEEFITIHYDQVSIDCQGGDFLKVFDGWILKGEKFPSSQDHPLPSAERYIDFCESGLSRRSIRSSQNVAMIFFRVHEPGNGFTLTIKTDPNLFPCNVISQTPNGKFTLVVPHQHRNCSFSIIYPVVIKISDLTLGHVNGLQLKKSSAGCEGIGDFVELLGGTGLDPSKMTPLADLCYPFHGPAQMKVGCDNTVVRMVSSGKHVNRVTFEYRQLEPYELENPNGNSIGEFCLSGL

[2] = target: T2, Type-1 angiotensin II receptor (Homo sapiens, UniProt P30556); experiment: agonist activity at AGTR1 – cell-based, uHTS hits, selectivity assay for APJ receptor agonist project, dose response (AID 488865); type: functional;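 further: beta-arrestin recruitment to AT1 measured by enzyme fragment complementation luminescence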
T2 sequence (P30556 whole entry): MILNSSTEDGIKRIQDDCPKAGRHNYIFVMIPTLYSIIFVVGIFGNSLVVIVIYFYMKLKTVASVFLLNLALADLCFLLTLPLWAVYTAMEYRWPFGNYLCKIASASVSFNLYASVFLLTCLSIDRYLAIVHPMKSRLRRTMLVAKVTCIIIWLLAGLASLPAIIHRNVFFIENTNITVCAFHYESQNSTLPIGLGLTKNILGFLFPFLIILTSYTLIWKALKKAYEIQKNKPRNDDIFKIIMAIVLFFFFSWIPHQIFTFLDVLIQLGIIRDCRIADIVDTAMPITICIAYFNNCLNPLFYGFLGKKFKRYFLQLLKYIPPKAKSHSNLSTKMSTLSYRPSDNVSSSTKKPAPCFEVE

[3] = target: Sphingosine 1-phosphate receptor 1 (Homo sapiens, UniProt P21453); experiment: Fluorescence-based counterscreen assay for S1P4 agonists: Cell-based dose response high throughput screening assay to identify agonists of the Sphingosine 1-Phosphate Receptor 1 (S1P1). [Related pubchem assays (depositor defined):AID1509, AID1523, AID1801, AID463107, AID463118, AID463119, AID463122, AID463123, AID463129, AID463225, AID504400, AID504460]; type: functional
Chain of Sphingosine 1-phosphate receptor 1 (P21453 whole entry): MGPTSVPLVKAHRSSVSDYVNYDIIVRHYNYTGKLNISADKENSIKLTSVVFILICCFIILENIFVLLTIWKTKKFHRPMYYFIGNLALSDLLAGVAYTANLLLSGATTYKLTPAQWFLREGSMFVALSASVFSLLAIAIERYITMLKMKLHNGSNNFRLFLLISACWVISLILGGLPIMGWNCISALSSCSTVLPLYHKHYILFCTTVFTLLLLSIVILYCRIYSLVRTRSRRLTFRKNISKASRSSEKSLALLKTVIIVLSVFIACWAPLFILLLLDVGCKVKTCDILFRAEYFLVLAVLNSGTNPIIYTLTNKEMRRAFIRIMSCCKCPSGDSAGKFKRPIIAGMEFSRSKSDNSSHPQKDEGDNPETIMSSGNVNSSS

[4] = target: Luciferin 4-monooxygenase (Photinus pyralis, UniProt P08659); experiment: Counter Screen for Luciferase-based Assay Positives. [Related pubchem assays: 620, 618, 411 ]
Chain of Luciferin 4-monooxygenase (P08659 whole entry): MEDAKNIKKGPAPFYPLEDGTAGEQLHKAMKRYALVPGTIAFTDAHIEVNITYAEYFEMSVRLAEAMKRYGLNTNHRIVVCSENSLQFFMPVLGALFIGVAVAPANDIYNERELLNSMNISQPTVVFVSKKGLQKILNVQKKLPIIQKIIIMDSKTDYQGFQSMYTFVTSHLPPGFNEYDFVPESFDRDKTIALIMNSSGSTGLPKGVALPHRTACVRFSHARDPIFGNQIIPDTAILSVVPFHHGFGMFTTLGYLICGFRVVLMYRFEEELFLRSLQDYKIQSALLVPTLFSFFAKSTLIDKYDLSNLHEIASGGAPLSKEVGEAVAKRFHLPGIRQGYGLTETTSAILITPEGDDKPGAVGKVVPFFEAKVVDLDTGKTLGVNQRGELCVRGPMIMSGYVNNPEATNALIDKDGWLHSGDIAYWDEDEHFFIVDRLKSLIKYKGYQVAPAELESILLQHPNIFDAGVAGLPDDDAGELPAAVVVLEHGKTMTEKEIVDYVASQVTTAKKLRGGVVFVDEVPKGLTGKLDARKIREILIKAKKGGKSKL

[5] = target: Sphingosine 1-phosphate receptor 4 (Homo sapiens, UniProt O95977); experiment: Fluorescence dose response cell-based high throughput screening assay for agonists of the Sphingosine 1-Phosphate Receptor 4 (S1P4). [Related pubchem assays: 1509 (Primary screen.), 1523 (Confirmation screen in triplicates.)]; type: functional
Chain of Sphingosine 1-phosphate receptor 4 (O95977 whole entry): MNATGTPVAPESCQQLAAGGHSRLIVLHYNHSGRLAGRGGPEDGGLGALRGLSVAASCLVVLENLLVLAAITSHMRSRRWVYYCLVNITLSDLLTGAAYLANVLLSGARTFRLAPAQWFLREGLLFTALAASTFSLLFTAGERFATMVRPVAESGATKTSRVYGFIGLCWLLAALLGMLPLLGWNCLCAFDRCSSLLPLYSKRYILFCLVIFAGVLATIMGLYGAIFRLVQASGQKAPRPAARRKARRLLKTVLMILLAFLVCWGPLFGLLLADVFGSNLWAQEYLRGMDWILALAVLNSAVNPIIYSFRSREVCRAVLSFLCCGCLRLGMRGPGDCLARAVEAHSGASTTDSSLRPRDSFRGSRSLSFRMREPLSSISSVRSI

[6] = viability of PTEN-deleted HCT116 cells – cell-based, HCT116 PTEN knockout, dose response (AID 1047); type: functional;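 further: HCT116 colon tumor cells with PTEN knocked out; cells exposed to compound for 60 hours before readout; potency for loss of cell viability measured by luminescence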
HT-1080 = experiment: HT1080 cell viability loss – fluorescence readout (AID 620); type: functional, cell-based; details: Homo sapiens
[7] = viability of HCT116 lacking mutant beta-catenin – cell-based, human colon tumor, dose response (AID 1045); type: functional;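 further: HCT116 colon tumor cells with beta catenin knocked out; cells exposed to compound for 60 hours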
[8] = target: Sphingosine 1-phosphate receptor 2 (Homo sapiens, UniProt O95136); experiment: Dose Response Cell Based Assay for Agonists of the S1P2 Receptor. [Related pubchem assays: 729, 736, 843 ]; type: functional
Chain of Sphingosine 1-phosphate receptor 2 (O95136 whole entry): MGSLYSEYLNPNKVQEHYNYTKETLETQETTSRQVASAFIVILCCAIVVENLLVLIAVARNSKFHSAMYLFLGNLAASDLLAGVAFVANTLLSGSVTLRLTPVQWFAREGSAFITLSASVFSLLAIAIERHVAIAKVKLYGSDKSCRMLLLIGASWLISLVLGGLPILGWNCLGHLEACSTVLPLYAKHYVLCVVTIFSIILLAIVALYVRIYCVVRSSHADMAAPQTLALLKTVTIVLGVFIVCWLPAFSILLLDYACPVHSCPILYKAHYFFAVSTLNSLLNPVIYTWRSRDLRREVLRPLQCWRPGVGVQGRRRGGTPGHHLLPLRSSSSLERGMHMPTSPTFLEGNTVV

[9] = target: Intestinal-type alkaline phosphatase (Homo sapiens, UniProt P09923); experiment: human intestinal alkaline phosphatase activators, dose response, biochemical, luminescence, uHTS hits (AID 463120); type: functional
Chain of Intestinal-type alkaline phosphatase (P09923 whole entry): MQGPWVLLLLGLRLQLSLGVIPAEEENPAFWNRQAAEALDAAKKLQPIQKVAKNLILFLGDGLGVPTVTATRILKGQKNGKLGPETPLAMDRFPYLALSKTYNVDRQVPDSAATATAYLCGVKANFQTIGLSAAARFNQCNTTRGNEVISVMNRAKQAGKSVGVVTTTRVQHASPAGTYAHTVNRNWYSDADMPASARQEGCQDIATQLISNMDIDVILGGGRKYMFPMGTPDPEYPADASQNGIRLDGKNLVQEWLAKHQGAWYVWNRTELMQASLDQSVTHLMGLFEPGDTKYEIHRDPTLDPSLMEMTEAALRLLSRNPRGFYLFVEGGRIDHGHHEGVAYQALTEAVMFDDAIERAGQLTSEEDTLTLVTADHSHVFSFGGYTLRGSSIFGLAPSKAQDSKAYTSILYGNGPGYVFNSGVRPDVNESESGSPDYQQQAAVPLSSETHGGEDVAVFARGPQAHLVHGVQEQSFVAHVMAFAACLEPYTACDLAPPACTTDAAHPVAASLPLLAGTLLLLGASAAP

[10] = antiviral efficacy against SV40, host toxicity – BSC cells, set 3, confirmation (AID 485276); type: functional, cell-based
Large T antigen = Large T antigen (Simian virus 40, UniProt P03070); experiment: A confirmatory biochemical assay using the ADP-Hunter methodology, purified TAg, and ATP to quantify activity of synthesized compounds that inhibit the ATPase activity of Tag (3). [Related pubchem assays (depositor defined):AID1903, AID1909, AID2102, AID2501, AID2615, AID2775, AID435001, AID449729]; design: species or system Betapolyomavirus macacae
Chain of Large T antigen (P03070 whole entry): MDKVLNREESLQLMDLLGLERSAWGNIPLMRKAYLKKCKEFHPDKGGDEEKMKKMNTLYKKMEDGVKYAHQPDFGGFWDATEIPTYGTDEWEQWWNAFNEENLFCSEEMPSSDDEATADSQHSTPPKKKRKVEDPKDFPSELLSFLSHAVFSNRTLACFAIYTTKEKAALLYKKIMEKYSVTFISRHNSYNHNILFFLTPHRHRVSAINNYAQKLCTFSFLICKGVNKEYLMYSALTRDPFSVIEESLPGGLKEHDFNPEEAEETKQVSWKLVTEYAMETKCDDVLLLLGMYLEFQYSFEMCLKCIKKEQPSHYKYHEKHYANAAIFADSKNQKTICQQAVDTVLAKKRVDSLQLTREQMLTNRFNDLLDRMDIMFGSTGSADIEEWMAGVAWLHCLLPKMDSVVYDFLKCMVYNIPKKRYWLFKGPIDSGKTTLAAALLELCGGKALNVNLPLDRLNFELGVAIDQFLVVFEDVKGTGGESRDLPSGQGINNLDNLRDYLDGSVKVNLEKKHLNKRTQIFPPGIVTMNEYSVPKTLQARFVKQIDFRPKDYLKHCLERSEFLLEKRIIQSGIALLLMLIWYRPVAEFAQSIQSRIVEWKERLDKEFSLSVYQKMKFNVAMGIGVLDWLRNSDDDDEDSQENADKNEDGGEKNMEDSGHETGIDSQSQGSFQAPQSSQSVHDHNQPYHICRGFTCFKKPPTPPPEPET

[11] = NIH-3T3 fibroblast cytotoxicity, dose response, cytotoxicity control, cell-based, fluorescence, Alamar Blue, secondary assay (AID 2327); type: functional;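 further: NIH-3T3 mouse fibroblasts cultured with fluconazole at 8 µg/mL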
[12] = luciferase reporter signal suppression in cells – H4 neuroglioma cells, luminescence, dose response (AID 1990); type: functional, cell-based
BJ [13] = experiment: BJ-TERT fibroblast viability loss – cell-based, RAS-independent, luminescence, dose response (AID 1933); type: functional; details: Homo sapiens
[14] = Luminescence Cell-Based Dose Response HTS to Identify Inhibitors of 5'UTR Stem-Loop Driven Prion Protein mRNA Translation in H4 Neuroglioblastoma Cells. [Related pubchem assays: 1827 (Project Summary), 1813 (Primary HTS)]; type: functional
[15] = alpha-synuclein stem-loop luciferase translation blockers – H4 neuroglioma cells, luminescence, confirmation (AID 1988); type: functional, cell-based
BJ [16] = experiment: cells; type: functional, cell-based; details: Homo sapiens
[17] = fluconazole-exposed Candida albicans growth modulators – fluorescence, retest, confirmation (AID 2467); type: functional, cell-based
[18] = DRD fibroblast viability loss – cell-based, non-viral oncogenic, luminescence, dose response (AID 1934); type: functional; details: Homo sapiens
Hexokinase HKDC1 = target: T3, Hexokinase HKDC1 (Homo sapiens, UniProt Q2TB90); experiment: activation of HKDC1 glucose phosphorylation – biochemical, W721R variant, dose response (AID 504730); type: functional
T3 sequence (Q2TB90 whole entry): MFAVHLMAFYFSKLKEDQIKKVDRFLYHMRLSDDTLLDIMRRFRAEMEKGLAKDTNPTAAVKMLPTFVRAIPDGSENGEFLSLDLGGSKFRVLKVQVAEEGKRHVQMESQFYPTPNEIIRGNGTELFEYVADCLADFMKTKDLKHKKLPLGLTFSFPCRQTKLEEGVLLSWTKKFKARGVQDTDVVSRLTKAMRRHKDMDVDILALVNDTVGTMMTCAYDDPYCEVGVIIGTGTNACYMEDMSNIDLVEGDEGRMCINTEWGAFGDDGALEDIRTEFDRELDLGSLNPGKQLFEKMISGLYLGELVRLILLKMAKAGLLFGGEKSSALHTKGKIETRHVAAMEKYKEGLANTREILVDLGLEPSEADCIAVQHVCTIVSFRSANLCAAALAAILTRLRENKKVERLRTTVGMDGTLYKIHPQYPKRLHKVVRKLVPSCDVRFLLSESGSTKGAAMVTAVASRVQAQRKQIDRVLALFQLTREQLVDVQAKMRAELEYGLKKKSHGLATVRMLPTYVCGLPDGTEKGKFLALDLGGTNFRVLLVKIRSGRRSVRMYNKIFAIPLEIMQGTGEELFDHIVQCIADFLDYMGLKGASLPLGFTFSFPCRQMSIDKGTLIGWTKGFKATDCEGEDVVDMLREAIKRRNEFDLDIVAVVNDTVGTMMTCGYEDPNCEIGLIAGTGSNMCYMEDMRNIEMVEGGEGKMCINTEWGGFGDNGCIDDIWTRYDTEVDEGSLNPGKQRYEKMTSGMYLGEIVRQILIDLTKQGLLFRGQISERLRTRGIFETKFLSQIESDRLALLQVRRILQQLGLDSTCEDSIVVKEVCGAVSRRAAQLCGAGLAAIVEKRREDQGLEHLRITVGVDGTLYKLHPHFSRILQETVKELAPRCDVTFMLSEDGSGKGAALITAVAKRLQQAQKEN

[19] = HEK-293T viability loss after treatment – luminescence, T-cell screen hits, cytotoxicity control for TCR NF-kB inhibitor project, dose response (AID 489026); type: functional, cell-based;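 further: cells exposed to compound about 14 hours before the viability readout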
Hexokinase-1 = Hexokinase-1 (Homo sapiens, UniProt P19367); experiment: HK1 enzyme activation by HKDC1 hits – biochemical, selectivity assay for HKDC1 activator project, dose response (AID 504762); type: functional
Chain of Hexokinase-1 (P19367 whole entry): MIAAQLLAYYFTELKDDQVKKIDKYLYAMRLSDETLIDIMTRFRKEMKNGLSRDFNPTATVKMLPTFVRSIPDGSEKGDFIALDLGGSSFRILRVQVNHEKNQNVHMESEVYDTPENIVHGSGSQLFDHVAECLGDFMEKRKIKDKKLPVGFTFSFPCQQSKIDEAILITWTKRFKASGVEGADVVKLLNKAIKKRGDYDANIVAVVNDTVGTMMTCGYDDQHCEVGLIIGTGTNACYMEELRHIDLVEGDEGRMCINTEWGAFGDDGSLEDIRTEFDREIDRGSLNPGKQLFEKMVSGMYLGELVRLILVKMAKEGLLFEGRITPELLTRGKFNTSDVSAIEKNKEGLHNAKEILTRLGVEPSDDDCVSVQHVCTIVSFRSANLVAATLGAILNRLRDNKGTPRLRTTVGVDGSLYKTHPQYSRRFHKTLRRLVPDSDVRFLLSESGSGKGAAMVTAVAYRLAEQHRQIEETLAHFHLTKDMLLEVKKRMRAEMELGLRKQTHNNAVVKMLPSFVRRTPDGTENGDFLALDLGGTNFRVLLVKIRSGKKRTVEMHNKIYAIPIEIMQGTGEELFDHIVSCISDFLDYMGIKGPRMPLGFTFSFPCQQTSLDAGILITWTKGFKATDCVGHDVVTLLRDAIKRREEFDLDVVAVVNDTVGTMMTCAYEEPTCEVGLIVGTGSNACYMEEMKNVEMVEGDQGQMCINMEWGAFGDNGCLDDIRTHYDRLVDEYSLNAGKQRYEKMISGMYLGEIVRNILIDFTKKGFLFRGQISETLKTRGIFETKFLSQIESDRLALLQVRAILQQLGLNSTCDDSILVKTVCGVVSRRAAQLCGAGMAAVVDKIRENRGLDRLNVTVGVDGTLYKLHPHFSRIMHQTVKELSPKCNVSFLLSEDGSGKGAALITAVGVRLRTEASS

HEK293 = experiment: EBV LMP1 TES2 canonical NF-kB signalling blockers – cell-based, HEK293, luciferase, cherry-pick, dose response (AID 588343); type: functional; details: Homo sapiens
[20] = target: T4, Apoptotic protease-activating factor 1 (Homo sapiens, UniProt O14727); type: functional
T4 sequence (O14727 whole entry): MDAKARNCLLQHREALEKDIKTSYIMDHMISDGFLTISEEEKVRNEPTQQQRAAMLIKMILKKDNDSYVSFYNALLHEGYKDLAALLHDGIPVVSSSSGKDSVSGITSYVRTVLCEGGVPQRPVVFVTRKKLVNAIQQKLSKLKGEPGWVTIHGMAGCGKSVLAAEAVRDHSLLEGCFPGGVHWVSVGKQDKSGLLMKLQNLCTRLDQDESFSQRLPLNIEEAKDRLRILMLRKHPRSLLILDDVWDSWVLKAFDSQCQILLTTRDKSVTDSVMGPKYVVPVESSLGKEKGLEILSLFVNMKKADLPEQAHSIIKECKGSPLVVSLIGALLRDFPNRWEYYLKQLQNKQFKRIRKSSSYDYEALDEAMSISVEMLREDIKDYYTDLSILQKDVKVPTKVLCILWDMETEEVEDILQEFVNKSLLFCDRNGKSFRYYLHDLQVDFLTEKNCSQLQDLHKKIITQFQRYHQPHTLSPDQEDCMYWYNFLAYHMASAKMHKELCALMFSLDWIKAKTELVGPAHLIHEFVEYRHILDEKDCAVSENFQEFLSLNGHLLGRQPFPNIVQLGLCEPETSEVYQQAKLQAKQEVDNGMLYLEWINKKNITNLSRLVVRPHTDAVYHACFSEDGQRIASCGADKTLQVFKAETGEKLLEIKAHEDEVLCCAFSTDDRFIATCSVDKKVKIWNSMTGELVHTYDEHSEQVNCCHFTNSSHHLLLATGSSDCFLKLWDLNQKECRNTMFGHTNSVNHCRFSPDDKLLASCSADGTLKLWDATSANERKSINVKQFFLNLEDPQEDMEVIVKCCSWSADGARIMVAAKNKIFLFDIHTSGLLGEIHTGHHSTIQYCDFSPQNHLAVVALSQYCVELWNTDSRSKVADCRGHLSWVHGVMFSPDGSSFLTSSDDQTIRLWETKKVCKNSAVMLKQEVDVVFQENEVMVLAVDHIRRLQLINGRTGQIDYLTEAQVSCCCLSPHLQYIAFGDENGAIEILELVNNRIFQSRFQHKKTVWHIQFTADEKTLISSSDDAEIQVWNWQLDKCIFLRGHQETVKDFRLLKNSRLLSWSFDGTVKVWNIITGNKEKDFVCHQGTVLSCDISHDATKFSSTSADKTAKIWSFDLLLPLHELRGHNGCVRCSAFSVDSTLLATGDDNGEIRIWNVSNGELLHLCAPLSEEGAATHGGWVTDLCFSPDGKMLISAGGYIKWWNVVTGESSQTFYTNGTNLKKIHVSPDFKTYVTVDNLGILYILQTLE

BJ [21] = experiment: growth inhibition of engineered Ras-driven BJ cells – cell-based, alamar blue fluorescence, cherrypicked samples, dose response (AID 2631); type: functional; details: Homo sapiens;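 further: confirmatory dose-response assay in RAS-dependent BJ fibroblasts engineered with TERT, LT and ST, with cytotoxicity read by fluorescence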
INS1 = experiment: INS-1E survival protection against cytokine death – cell-based, luminescence, retest, dose response (AID 449756); type: functional; details: Rattus norvegicus;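 further: cell death triggered by IL-1 beta plus TNF-alpha plus IFN-gamma mixture; protective hits raise ATP signal compared with cytokine alone wells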

With `CCOC(=O)c1sc(-c2ccc(F)cc2)cc1NC(=O)Nc1ccccc1OC` the EC50 (Troponin, cardiac muscle) was > 71400 nM (inactive) and the EC50 [1] was > 53000 nM (inactive).

With `CCCCC1=CC2=CC(=O)C(C)(OC(=O)CC)C(=O)C2=CN1c1ccccc1` (stereo not drawn) the EC50 [2] was > 100000 nM (inactive).

For `CN(C)CCCNS(=O)(=O)c1ccc(N2CCC(c3ccc(Cl)cc3)=N2)cc1`, the EC50 [3] was > 614 nM (active), the EC50 [4] was 1040 nM (active) and the EC50 [5] was > 614 nM (active). The EC50 [6] was 4530 nM (active), the EC50 (HT-1080) was 14400 nM (active) and the EC50 [7] was 4670 nM (active). For the same compound, the EC50 [8] was 338 nM (active).

With `CCC1CCCCN1C1Sc2ccc(C(=O)OC)cc2NC1=O` (stereo not drawn) the EC50 [9] was > 100000 nM (inactive).

In the case of `CC(C)c1cc(C(C)(C)c2ccc(O)c(C(C)C)c2)ccc1O`, the IC50 [10] is reported as 11900 nM (active) and the IC50 (Large T antigen) is reported as 26700 nM (active).

In the case of `Cc1[nH]n(-c2ccccc2)c(=O)c1/C=N/Nc1nncc(-c2ccccc2)n1`, the EC50 [11] is reported as 2320 nM (active), the EC50 [12] is reported as 733 nM (active) and the EC50 (BJ [13]) is reported as 2760 nM (active). For the same compound, the EC50 [14] was 155 nM (active), the EC50 [15] was 173 nM (active) and the EC50 (BJ [16]) was 3060 nM (active). For the same compound, the EC50 [17] was 2540 nM (active), the EC50 [18] was 2390 nM (active) and the EC50 (Hexokinase HKDC1) was 6690 nM (active). The IC50 [19] was > 80000 nM (inactive), the EC50 (Hexokinase-1) was > 80000 nM (inactive) and the AC50 (HEK293) was 2450 nM (active). The IC50 [20] was 3500 nM (active), the EC50 (BJ [21]) was 471 nM (inconclusive) and the AC50 (INS1) was 394 nM (active).
